In PubChem BioAssay (NCI):
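1) Cells in 96-well plates. 2) Compound, 48 h, 5 concentrations. 3) Linear interpolation between surrounding doses. 4) Unreached endpoint = highest concentration. GI50: concentration for 50% inhibition of growth. TGI is the concentration that stops growth completely.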

Tests used:
Assay in all cases: DTP human tumour cell line panel, 48 h
MDA-MB-231 breast = tested on: MDA-MB-231 breast
SN12C renal = tested on: SN12C renal
HT29 colon = tested on: HT29 colon
M14 melanoma = tested on: M14 melanoma
DU-145 prostate = tested on: DU-145 prostate
HCT-15 colon = tested on: HCT-15 colon
CCRF-CEM leukemia = tested on: CCRF-CEM leukemia
OVCAR-4 ovarian = tested on: OVCAR-4 ovarian
T-47D breast = tested on: T-47D breast
U251 CNS = tested on: U251 CNS
SK-MEL-5 melanoma = tested on: SK-MEL-5 melanoma
SK-MEL-28 melanoma = tested on: SK-MEL-28 melanoma
NCI-H522 lung = tested on: NCI-H522 lung
SF-268 CNS = tested on: SF-268 CNS
IGROV1 ovarian = tested on: IGROV1 ovarian
HL-60(TB) leukemia = tested on: HL-60(TB) leukemia
ACHN renal = tested on: ACHN renal
SK-MEL-2 melanoma = tested on: SK-MEL-2 melanoma
COLO 205 colon = tested on: COLO 205 colon
A549 NSCLC = tested on: A549 NSCLC
SF-539 CNS = tested on: SF-539 CNS
OVCAR-5 ovarian = tested on: OVCAR-5 ovarian
MCF7 breast = tested on: MCF7 breast
SF-295 CNS = tested on: SF-295 CNS
OVCAR-3 ovarian = tested on: OVCAR-3 ovarian
HCT-116 colon = tested on: HCT-116 colon
RPMI-8226 leukemia = tested on: RPMI-8226 leukemia
SNB-75 CNS = tested on: SNB-75 CNS
EKVX NSCLC = tested on: EKVX NSCLC
SNB-19 CNS = tested on: SNB-19 CNS
CAKI-1 renal = tested on: CAKI-1 renal
MOLT-4 leukemia = tested on: MOLT-4 leukemia
HOP-62 NSCLC = tested on: HOP-62 NSCLC
HS 578T breast = tested on: HS 578T breast
HCC-2998 colon = tested on: HCC-2998 colon
KM12 colon = tested on: KM12 colon
RXF 393 renal = tested on: RXF 393 renal
786-0 renal = tested on: 786-0 renal
TK-10 renal = tested on: TK-10 renal
NCI-H226 lung = tested on: NCI-H226 lung
SK-OV-3 ovarian = tested on: SK-OV-3 ovarian
PC-3 prostate = tested on: PC-3 prostate
A498 renal = tested on: A498 renal
NCI-H23 lung = tested on: NCI-H23 lung
MDA-MB-435 = tested on: MDA-MB-435
K-562 leukemia = tested on: K-562 leukemia
UACC-257 melanoma = tested on: UACC-257 melanoma
NCI/ADR-RES ovarian = tested on: NCI/ADR-RES ovarian
NCI-H460 lung = tested on: NCI-H460 lung
HOP-92 NSCLC = tested on: HOP-92 NSCLC
BT-549 breast = tested on: BT-549 breast
OVCAR-8 ovarian = tested on: OVCAR-8 ovarian
SW-620 colon = tested on: SW-620 colon
UACC-62 melanoma = tested on: UACC-62 melanoma
UO-31 renal = tested on: UO-31 renal

SMILES: CC1=NN(c2cccc(Cl)c2)C(=O)/C1=C\c1cn(CC(O)CN2CCCCC2)c2ccccc12 (stereo not given)
- GI50 (MDA-MB-231 breast): 3.32 µM
- TGI (MDA-MB-231 breast): 15.8 µM
- GI50 (SN12C renal): 12.3 µM
- TGI (SN12C renal): 35.3 µM
- GI50 (HT29 colon): 2.02 µM
- TGI (HT29 colon): 4.57 µM
- GI50 (M14 melanoma): 1.75 µM
- TGI (M14 melanoma): 3.29 µM
- GI50 (DU-145 prostate): 10.4 µM
- TGI (DU-145 prostate): 23.2 µM
- GI50 (HCT-15 colon): 2.42 µM
- TGI (HCT-15 colon): 6.7 µM
- GI50 (CCRF-CEM leukemia): 3.38 µM
- TGI (CCRF-CEM leukemia): > 100 µM
- GI50 (OVCAR-4 ovarian): 13.3 µM
- TGI (OVCAR-4 ovarian): 28.1 µM
- GI50 (T-47D breast): 15.8 µM
- TGI (T-47D breast): 36.2 µM
- GI50 (U251 CNS): 3.64 µM
- TGI (U251 CNS): 14 µM
- GI50 (SK-MEL-5 melanoma): 3.34 µM
- TGI (SK-MEL-5 melanoma): 10.9 µM
- GI50 (SK-MEL-28 melanoma): 1.82 µM
- TGI (SK-MEL-28 melanoma): 3.47 µM
- GI50 (NCI-H522 lung): 10.9 µM
- TGI (NCI-H522 lung): 26.5 µM
- GI50 (SF-268 CNS): 10.1 µM
- TGI (SF-268 CNS): 24.9 µM
- GI50 (IGROV1 ovarian): 2.99 µM
- TGI (IGROV1 ovarian): 14.6 µM
- GI50 (HL-60(TB) leukemia): 2.89 µM
- TGI (HL-60(TB) leukemia): 14.4 µM
- GI50 (ACHN renal): 3.18 µM
- TGI (ACHN renal): 14.6 µM
- GI50 (SK-MEL-2 melanoma): 10.3 µM
- TGI (SK-MEL-2 melanoma): 24.7 µM
- GI50 (COLO 205 colon): 1.73 µM
- TGI (COLO 205 colon): 3.26 µM
- GI50 (A549 NSCLC): 24.6 µM
- TGI (A549 NSCLC): 72.9 µM
- GI50 (SF-539 CNS): 10.2 µM
- TGI (SF-539 CNS): 26.6 µM
- GI50 (OVCAR-5 ovarian): 14.6 µM
- TGI (OVCAR-5 ovarian): 33.9 µM
- GI50 (MCF7 breast): 6.47 µM
- TGI (MCF7 breast): 21.5 µM
- GI50 (SF-295 CNS): 2.24 µM
- TGI (SF-295 CNS): 5.49 µM
- GI50 (OVCAR-3 ovarian): 7.98 µM
- TGI (OVCAR-3 ovarian): 20.9 µM
- GI50 (HCT-116 colon): 1.74 µM
- TGI (HCT-116 colon): 3.35 µM
- GI50 (RPMI-8226 leukemia): 2.91 µM
- TGI (RPMI-8226 leukemia): 8.73 µM
- GI50 (SNB-75 CNS): 7.75 µM
- TGI (SNB-75 CNS): 21.1 µM
- GI50 (EKVX NSCLC): 11.1 µM
- TGI (EKVX NSCLC): 25.9 µM
- GI50 (SNB-19 CNS): 16.8 µM
- TGI (SNB-19 CNS): 53.7 µM
- GI50 (CAKI-1 renal): 1.83 µM
- TGI (CAKI-1 renal): 5.33 µM
- GI50 (MOLT-4 leukemia): 4.76 µM
- TGI (MOLT-4 leukemia): 28.8 µM
- GI50 (HOP-62 NSCLC): 12.4 µM
- TGI (HOP-62 NSCLC): 26.5 µM
- GI50 (HS 578T breast): 6.14 µM
- TGI (HS 578T breast): 33.6 µM
- GI50 (HCC-2998 colon): 6.12 µM
- TGI (HCC-2998 colon): 19.2 µM
- GI50 (KM12 colon): 2.92 µM
- TGI (KM12 colon): 8.26 µM
- GI50 (RXF 393 renal): 4.97 µM
- TGI (RXF 393 renal): 17.5 µM
- GI50 (786-0 renal): 7.46 µM
- TGI (786-0 renal): 20.8 µM
- GI50 (TK-10 renal): 7.51 µM
- TGI (TK-10 renal): 21.3 µM
- GI50 (NCI-H226 lung): 22.5 µM
- TGI (NCI-H226 lung): 50.4 µM
- GI50 (SK-OV-3 ovarian): 12.9 µM
- TGI (SK-OV-3 ovarian): 26.6 µM
- GI50 (PC-3 prostate): 9.81 µM
- TGI (PC-3 prostate): 26.1 µM
- GI50 (A498 renal): 14.6 µM
- TGI (A498 renal): 41.6 µM
- GI50 (NCI-H23 lung): 12.4 µM
- TGI (NCI-H23 lung): 32.4 µM
- GI50 (MDA-MB-435): 1.89 µM
- TGI (MDA-MB-435): 3.74 µM
- GI50 (K-562 leukemia): 3.29 µM
- TGI (K-562 leukemia): 39.4 µM
- GI50 (UACC-257 melanoma): 2.35 µM
- TGI (UACC-257 melanoma): 4.62 µM
- GI50 (NCI/ADR-RES ovarian): 4.79 µM
- TGI (NCI/ADR-RES ovarian): 20.7 µM
- GI50 (NCI-H460 lung): 2.44 µM
- TGI (NCI-H460 lung): 6.4 µM
- GI50 (HOP-92 NSCLC): 14.8 µM
- TGI (HOP-92 NSCLC): 38 µM
- GI50 (BT-549 breast): 15 µM
- TGI (BT-549 breast): 29.5 µM
- GI50 (OVCAR-8 ovarian): 6.93 µM
- TGI (OVCAR-8 ovarian): 92.9 µM
- GI50 (SW-620 colon): 1.73 µM
- TGI (SW-620 colon): 3.53 µM
- GI50 (UACC-62 melanoma): 2.17 µM
- TGI (UACC-62 melanoma): 4.9 µM
- GI50 (UO-31 renal): 1.73 µM
- TGI (UO-31 renal): 7.12 µM
